The values that follow are results of earlier work, collected in US20150315247A1, “High-affinity peptide-based anticancer vaccination to overcome tumor resistance to immunostimulatory antibodies and to identify TCRs that can be used successfully in adoptive T cell therapy” (priority 2014, published 2015).

The data set deals with T1, H-2K^b (mouse MHC) (Mus musculus, UniProt P01901).
T1 sequence (P01901 22-369): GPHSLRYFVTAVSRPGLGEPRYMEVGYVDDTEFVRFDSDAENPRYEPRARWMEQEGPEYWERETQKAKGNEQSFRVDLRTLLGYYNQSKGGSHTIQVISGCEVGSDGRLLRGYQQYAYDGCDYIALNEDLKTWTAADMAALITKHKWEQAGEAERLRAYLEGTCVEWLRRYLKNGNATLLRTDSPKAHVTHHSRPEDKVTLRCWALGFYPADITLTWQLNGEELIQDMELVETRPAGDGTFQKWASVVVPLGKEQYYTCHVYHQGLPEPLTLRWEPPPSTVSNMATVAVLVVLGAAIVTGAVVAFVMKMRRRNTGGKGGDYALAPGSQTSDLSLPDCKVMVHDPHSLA
T1 sequence (P01887 21-119 partner): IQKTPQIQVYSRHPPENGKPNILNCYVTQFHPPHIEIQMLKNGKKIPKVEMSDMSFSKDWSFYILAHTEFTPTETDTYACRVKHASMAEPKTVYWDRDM
Particulars: SIINFEKL peptide binding to H-2K^b; read-out: peptide-H-2K^b affinity IC50.

The IC50 is the concentration at which inhibition is half-maximal. Turning to SIINFEKL [SIINFEKL peptide], the IC50 is 0.9 nM.
